{
  "source": "PubChem BioAssay AID2060490",
  "about": "(Molecular Pharmacology Branch, DTP, NCI, 2025);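 also: spheroids exposed to the compounds for one week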;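 as to viability, T/C: percent of tumor spheroid viability relative to DMSO vehicle control wells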",
  "system": "885512-296-R-J2-PDC complex spheroid viability",
  "test": "Anticancer human tumor 885512-296-R-J2-PDC patient-derived breast carcinoma cell line growth inhibition [GQUAD]",
  "details": "for IC50: curve of first compound; for viability, T/C: stronger effect = lower value",
  "in_short": "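Viability of tumor cells grown as complex spheroids with endothelial and stromal cells, exposed to drug combinations. Top concentration at or near clinical Cmax (else 10 microM), diluted in half-log increments.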",
  "key": {"[1]": {"details": "second compound 0.0316 µM, first compound 0.0316 µM"}, "[2]": {"details": "second compound 0.0316 µM, first compound 0.316 µM"}, "[3]": {"details": "second compound 0.1 µM, first compound 0.0316 µM"}, "[4]": {"details": "second compound 0.1 µM, first compound 0.316 µM"}, "[5]": {"details": "second compound 0.316 µM, first compound 0.0316 µM"}, "[6]": {"details": "second compound 0.316 µM, first compound 0.316 µM"}, "[7]": {"details": "second compound 1 µM, first compound 0.0316 µM"}, "[8]": {"details": "second compound 1 µM, first compound 0.316 µM"}, "[9]": {"details": "second compound 3.16 µM, first compound 0.0316 µM"}, "[10]": {"details": "second compound 3.16 µM, first compound 0.316 µM"}, "[11]": {"details": "second compound 10 µM, first compound 0.0316 µM"}, "[12]": {"details": "second compound 10 µM, first compound 0.316 µM"}},
  "data": [
    {"smiles": "Cc1[nH]c2ccccc2c1CCNCc1ccc(/C=C/C(=O)NO)cc1", "note": "+ Cc1[nH]c2ccc(F)cc2c1-c1nc2c3cccnc3c3ncccc3c2[nH]1", "values": [
      {"measurement": "IC50", "setting": "second compound 0.0316 µM", "value": "> 316", "unit": "nM"},
      {"measurement": "IC50", "setting": "second compound 0.1 µM", "value": "> 316", "unit": "nM"},
      {"measurement": "IC50", "setting": "second compound 0.316 µM", "value": "> 316", "unit": "nM"},
      {"measurement": "IC50", "setting": "second compound 1 µM", "value": "> 316", "unit": "nM"},
      {"measurement": "IC50", "setting": "second compound 3.16 µM", "value": "< 0.999", "unit": "nM"},
      {"measurement": "IC50", "setting": "second compound 10 µM", "value": "< 0.999", "unit": "nM"},
      {"measurement": "viability, T/C", "setting": "second compound 0.0316 µM, first compound 0.000999 µM", "value": 99.3, "unit": "%"},
      {"measurement": "viability, T/C", "setting": "second compound 0.0316 µM, first compound 0.00316 µM", "value": 114, "unit": "%"},
      {"measurement": "viability, T/C", "setting": "second compound 0.0316 µM, first compound 0.00999 µM", "value": 97.1, "unit": "%"},
      {"measurement": "viability, T/C", "setting": "[1]", "value": 94.9, "unit": "%"},
      {"measurement": "viability, T/C", "setting": "second compound 0.0316 µM, first compound 0.0999 µM", "value": 100, "unit": "%"},
      {"measurement": "viability, T/C", "setting": "[2]", "value": 78.2, "unit": "%"},
      {"measurement": "viability, T/C", "setting": "second compound 0.1 µM, first compound 0.000999 µM", "value": 99.7, "unit": "%"},
      {"measurement": "viability, T/C", "setting": "second compound 0.1 µM, first compound 0.00316 µM", "value": 97.1, "unit": "%"},
      {"measurement": "viability, T/C", "setting": "second compound 0.1 µM, first compound 0.00999 µM", "value": 94.7, "unit": "%"},
      {"measurement": "viability, T/C", "setting": "[3]", "value": 92.1, "unit": "%"},
      {"measurement": "viability, T/C", "setting": "second compound 0.1 µM, first compound 0.0999 µM", "value": 103, "unit": "%"},
      {"measurement": "viability, T/C", "setting": "[4]", "value": 82.4, "unit": "%"},
      {"measurement": "viability, T/C", "setting": "second compound 0.316 µM, first compound 0.000999 µM", "value": 92.5, "unit": "%"},
      {"measurement": "viability, T/C", "setting": "second compound 0.316 µM, first compound 0.00316 µM", "value": 88.4, "unit": "%"},
      {"measurement": "viability, T/C", "setting": "second compound 0.316 µM, first compound 0.00999 µM", "value": 90.2, "unit": "%"},
      {"measurement": "viability, T/C", "setting": "[5]", "value": 87.3, "unit": "%"},
      {"measurement": "viability, T/C", "setting": "second compound 0.316 µM, first compound 0.0999 µM", "value": 85.7, "unit": "%"},
      {"measurement": "viability, T/C", "setting": "[6]", "value": 69.5, "unit": "%"},
      {"measurement": "viability, T/C", "setting": "second compound 1 µM, first compound 0.000999 µM", "value": 75.9, "unit": "%"},
      {"measurement": "viability, T/C", "setting": "second compound 1 µM, first compound 0.00316 µM", "value": 53.9, "unit": "%"},
      {"measurement": "viability, T/C", "setting": "second compound 1 µM, first compound 0.00999 µM", "value": 62.3, "unit": "%"},
      {"measurement": "viability, T/C", "setting": "[7]", "value": 65.9, "unit": "%"},
      {"measurement": "viability, T/C", "setting": "second compound 1 µM, first compound 0.0999 µM", "value": 53.7, "unit": "%"},
      {"measurement": "viability, T/C", "setting": "[8]", "value": 56.4, "unit": "%"},
      {"measurement": "viability, T/C", "setting": "second compound 3.16 µM, first compound 0.000999 µM", "value": 5.78, "unit": "%"},
      {"measurement": "viability, T/C", "setting": "second compound 3.16 µM, first compound 0.00316 µM", "value": 9.7, "unit": "%"},
      {"measurement": "viability, T/C", "setting": "second compound 3.16 µM, first compound 0.00999 µM", "value": 7.26, "unit": "%"},
      {"measurement": "viability, T/C", "setting": "[9]", "value": 6.61, "unit": "%"},
      {"measurement": "viability, T/C", "setting": "second compound 3.16 µM, first compound 0.0999 µM", "value": 5.06, "unit": "%"},
      {"measurement": "viability, T/C", "setting": "[10]", "value": 4.88, "unit": "%"},
      {"measurement": "viability, T/C", "setting": "second compound 10 µM, first compound 0.000999 µM", "value": 1.15, "unit": "%"},
      {"measurement": "viability, T/C", "setting": "second compound 10 µM, first compound 0.00316 µM", "value": 1.37, "unit": "%"},
      {"measurement": "viability, T/C", "setting": "second compound 10 µM, first compound 0.00999 µM", "value": 1.33, "unit": "%"},
      {"measurement": "viability, T/C", "setting": "[11]", "value": 2.33, "unit": "%"},
      {"measurement": "viability, T/C", "setting": "second compound 10 µM, first compound 0.0999 µM", "value": 1.05, "unit": "%"},
      {"measurement": "viability, T/C", "setting": "[12]", "value": 1.69, "unit": "%"}
    ]},
    {"smiles": "O=C(NO)c1cnc(N2CCN(S(=O)(=O)c3ccc4ccccc4c3)CC2)nc1", "note": "+ Cc1[nH]c2ccc(F)cc2c1-c1nc2c3cccnc3c3ncccc3c2[nH]1", "values": [
      {"measurement": "IC50", "setting": "second compound 0.0316 µM", "value": "< 31.6", "unit": "nM"},
      {"measurement": "IC50", "setting": "second compound 0.1 µM", "value": "< 31.6", "unit": "nM"},
      {"measurement": "IC50", "setting": "second compound 0.316 µM", "value": "< 31.6", "unit": "nM"},
      {"measurement": "IC50", "setting": "second compound 1 µM", "value": "< 31.6", "unit": "nM"},
      {"measurement": "IC50", "setting": "second compound 3.16 µM", "value": "< 31.6", "unit": "nM"},
      {"measurement": "IC50", "setting": "second compound 10 µM", "value": "< 31.6", "unit": "nM"},
      {"measurement": "viability, T/C", "setting": "[1]", "value": 7.49, "unit": "%"},
      {"measurement": "viability, T/C", "setting": "second compound 0.0316 µM, first compound 0.1 µM", "value": 2.85, "unit": "%"},
      {"measurement": "viability, T/C", "setting": "[2]", "value": 3.25, "unit": "%"},
      {"measurement": "viability, T/C", "setting": "second compound 0.0316 µM, first compound 1 µM", "value": 3.35, "unit": "%"},
      {"measurement": "viability, T/C", "setting": "second compound 0.0316 µM, first compound 3.16 µM", "value": 2.95, "unit": "%"},
      {"measurement": "viability, T/C", "setting": "second compound 0.0316 µM, first compound 10 µM", "value": 3.28, "unit": "%"},
      {"measurement": "viability, T/C", "setting": "[3]", "value": 6.66, "unit": "%"},
      {"measurement": "viability, T/C", "setting": "second compound 0.1 µM, first compound 0.1 µM", "value": 3.49, "unit": "%"},
      {"measurement": "viability, T/C", "setting": "[4]", "value": 2.89, "unit": "%"},
      {"measurement": "viability, T/C", "setting": "second compound 0.1 µM, first compound 1 µM", "value": 3.93, "unit": "%"},
      {"measurement": "viability, T/C", "setting": "second compound 0.1 µM, first compound 3.16 µM", "value": 2.97, "unit": "%"},
      {"measurement": "viability, T/C", "setting": "second compound 0.1 µM, first compound 10 µM", "value": 4.1, "unit": "%"},
      {"measurement": "viability, T/C", "setting": "[5]", "value": 7.12, "unit": "%"},
      {"measurement": "viability, T/C", "setting": "second compound 0.316 µM, first compound 0.1 µM", "value": 4.32, "unit": "%"},
      {"measurement": "viability, T/C", "setting": "[6]", "value": 3.29, "unit": "%"},
      {"measurement": "viability, T/C", "setting": "second compound 0.316 µM, first compound 1 µM", "value": 3.62, "unit": "%"},
      {"measurement": "viability, T/C", "setting": "second compound 0.316 µM, first compound 3.16 µM", "value": 3.66, "unit": "%"},
      {"measurement": "viability, T/C", "setting": "second compound 0.316 µM, first compound 10 µM", "value": 4.67, "unit": "%"},
      {"measurement": "viability, T/C", "setting": "[7]", "value": 6.46, "unit": "%"},
      {"measurement": "viability, T/C", "setting": "second compound 1 µM, first compound 0.1 µM", "value": 4.49, "unit": "%"},
      {"measurement": "viability, T/C", "setting": "[8]", "value": 3.76, "unit": "%"},
      {"measurement": "viability, T/C", "setting": "second compound 1 µM, first compound 1 µM", "value": 5.02, "unit": "%"},
      {"measurement": "viability, T/C", "setting": "second compound 1 µM, first compound 3.16 µM", "value": 5.46, "unit": "%"},
      {"measurement": "viability, T/C", "setting": "second compound 1 µM, first compound 10 µM", "value": 3.77, "unit": "%"},
      {"measurement": "viability, T/C", "setting": "[9]", "value": 2.35, "unit": "%"},
      {"measurement": "viability, T/C", "setting": "second compound 3.16 µM, first compound 0.1 µM", "value": 2.1, "unit": "%"},
      {"measurement": "viability, T/C", "setting": "[10]", "value": 2.47, "unit": "%"},
      {"measurement": "viability, T/C", "setting": "second compound 3.16 µM, first compound 1 µM", "value": 2.68, "unit": "%"},
      {"measurement": "viability, T/C", "setting": "second compound 3.16 µM, first compound 3.16 µM", "value": 1.7, "unit": "%"},
      {"measurement": "viability, T/C", "setting": "second compound 3.16 µM, first compound 10 µM", "value": 2.56, "unit": "%"},
      {"measurement": "viability, T/C", "setting": "[11]", "value": 1.59, "unit": "%"},
      {"measurement": "viability, T/C", "setting": "second compound 10 µM, first compound 0.1 µM", "value": 2.99, "unit": "%"},
      {"measurement": "viability, T/C", "setting": "[12]", "value": 1.66, "unit": "%"},
      {"measurement": "viability, T/C", "setting": "second compound 10 µM, first compound 1 µM", "value": 1.46, "unit": "%"},
      {"measurement": "viability, T/C", "setting": "second compound 10 µM, first compound 3.16 µM", "value": 1.54, "unit": "%"},
      {"measurement": "viability, T/C", "setting": "second compound 10 µM, first compound 10 µM", "value": 2.58, "unit": "%"}
    ]}
  ]
}
